This is an account of results in patent US9783499B2, “Quinoline derivatives and their applications” (Shenyang Pharmaceutical University, priority 2012, dated 2017).

Assay [1] relates to MKN-45 (human gastric carcinoma cell). Nature of the assay: In vitro anti-tumor cellular activity (MTT), MKN-45. It counts as cell-based. To be noted: 72 hours. The protocol:
(§1) After pouring the cell dissociation buffer to the centrifugetube, nutrient solution was added to stop digestion. The centrifugetube were centrifuged for 10 min under 800 r/min, the liquid supernatant was removed, 5 mL culture solution was added, after mixing by pipetting the cell, took 10 μL cell suspension to the cell counting plat, and adjusted the cell concentration to 10^4/well. Among the 96 wells, A1 is empty, 100 μL of cell suspension were added to the other wells. The 96 well plates were incubated in the incubator for 24 h. […] The 96-well plates were placed in an incubator and cultivated for 72 hours. (3) The culture media containing the compounds in the 96-well plates was discarded, and the cells were washed with phosphate buffered solution (PBS) twice. Each well was added with 100 μL MTT (tetrazole) (0.5 mg/mL), and then placed in an incubator to incubate for 4 hours, after which MTT solution was discarded and 100 μL dimethyl sulfoxide was added thereto.

Assay [2] has as its system SMMC-7721 (hepatoma cell). Nature of the assay: In vitro anti-tumor cellular activity (MTT), SMMC-7721. In kind it is cell-based. As to conditions: 72 hours. As for the experimental part: as §1
Assay [3] relates to HT-29 (colon cancer cell). Nature of the assay: In vitro anti-tumor cellular activity (MTT), HT-29. It counts as cell-based. To be noted: 72 hours. As for the experimental part:
as §1

Assay [4] relates to MDA-MB-231 (human beast cancer cell). The assay can be described thus: In vitro anti-tumor cellular activity (MTT), MDA-MB-231. It counts as cell-based. As to conditions: 72 hours. The protocol:
as §1

Assay [5] concerns U87MG (Human malignant glioblastoma cell). The assay can be described thus: In vitro anti-tumor cellular activity (MTT), U87MG. In kind it is cell-based. As to conditions: 72 hours. The protocol:
as §1

Assay [6] deals with H460 (human lung cancer cell). Nature of the assay: In vitro anti-tumor cellular activity (MTT), H460. In kind it is cell-based. As to conditions: for H460 IC50: 72 hours. As for the experimental part:
as §1

Assay [7] deals with human tumor cell lines (such as human lung cancer cells, human gastric cancer cells, etc.). To be noted: cited from earlier work.

Values after ≈ are worked out from the molar mass of the structure shown.

Consider `COc1cc2c(Oc3ccc(N(/N=C/c4cc(C)c(O)c(C)c4)C(N)=O)cc3F)ccnc2cc1OCCCN1CCOCC1` [Example 27, (E)-N^1-(3-fluoro-4-(6-methoxy-7-(3-(morpholin-4-yl)propoxy)quinoline-4-yloxy)phenyl)-N^4-(3,5-dimethyl-4-hydroxybenzaldehyde)semicarbazone], for which the IC50 in assay [1] (Homo sapiens) is 0.2 µg/mL (≈ 0.324 µM); in assay [2] (Homo sapiens), 0.53 µg/mL (≈ 0.858 µM); in assay [3] (Homo sapiens) it was 0.59 µg/mL (≈ 0.955 µM); in assay [4] (Homo sapiens) it was 0.96 µg/mL (≈ 1.55 µM); in assay [5] (Homo sapiens, U-87 MG), 1.4 µg/mL (≈ 2.27 µM); in assay [6] (Homo sapiens, NCI-H460, 72 hours), 1.3 µg/mL (≈ 2.1 µM).
Turning to `COc1cc2c(Oc3ccc(NC(=O)C4(C(=O)Nc5ccc(F)cc5)CC4)cc3F)ccnc2cc1OCCCN1CCOCC1` [Foretinib], the “IC50 against a variety of human tumor cell lines” value in assay [7] is on record as “about 0.004 mg/mL”.
Consider `COc1cc2c(Oc3ccc(NC(=O)N/N=C/c4ccccc4)cc3F)ccnc2cc1OCCCN1CCCCC1` [Example 5, (E)-N^1-(3-fluoro-4-(6-methoxy-7-(3-(piperidin-1-yl)propoxy)quinoline-4-yloxy)phenyl)-N^4-(benzaldehyde)semicarbazone], for which, in assay [1], the “MKN-45 IC50” value turned out to be 0.012 µg/mL. The “SMMC-7721 IC50” value in assay [2] stood at 0.16 µg/mL. Further, the “HT-29 IC50” value in assay [3] is 0.0088 µg/mL. In assay [4], the “MDA-MB-231 IC50” value was 0.010 µg/mL. Further, the “U87MG IC50” value in assay [5] amounted to 0.19 µg/mL. The “H460 IC50” value in assay [6] came to 0.012 µg/mL.
As for `COc1cc2c(Oc3ccc(C=NNC(=S)Nc4ccc(Cl)c(C(F)(F)F)c4)cc3F)ccnc2cc1OCCCN1CCC(C)CC1` [Example 64, (E)-N^1-[4-chloro-3-(trifluoromethyl)phenyl]-N^4-(3-fluoro-4-(6-methoxy-7-(3-(4-methylpiperidin-1-yl)propoxy)quinoline-4-yloxy)benzaldehyde)thiosemicarbazone], the “MKN-45 IC50” value in assay [1] was found to be 0.65 µg/mL. In assay [2], the “SMMC-7721 IC50” value was determined as 1.0 µg/mL. The “HT-29 IC50” value in assay [3] worked out at 0.34 µg/mL. Moreover, the “MDA-MB-231 IC50” value in assay [4] was determined as 0.98 µg/mL. Moreover, in assay [5], the “U87MG IC50” value amounted to 1.7 µg/mL. Further, the “H460 IC50” value in assay [6] stood at 0.56 µg/mL.
“(E)-N^1-phenyl-N^4-(3-fluoro-4-(6-methoxy-7-(3-(4-methylpiperidin-1-yl)propoxy)quinoline-4-yloxy)benzaldehyde)thiosemicarbazone [Example 63]”: the “MKN-45 IC50” value in assay [1] came out at 0.73 µg/mL. Besides, the “SMMC-7721 IC50” value in assay [2] stood at 0.64 µg/mL. Moreover, in assay [3], the “HT-29 IC50” value came to 0.50 µg/mL. Besides, in assay [4], the “MDA-MB-231 IC50” value amounted to 0.14 µg/mL. The “U87MG IC50” value in assay [5] worked out at 1.0 µg/mL. Moreover, the “H460 IC50” value in assay [6] worked out at 0.33 µg/mL.
With `COc1cc2c(Oc3ccc(NC(=S)N/N=C/c4ccccc4)cc3F)ccnc2cc1OCCCN1CCC(C)CC1` [Example 37, (E)-N^1-(3-fluoro-4-(6-methoxy-7-(3-(4-methylpiperidin-1-yl)propoxy)quinoline-4-yloxy)phenyl)-N^4-(benzaldehyde)thiosemicarbazone], the “MKN-45 IC50” value in assay [1] came out at 0.56 µg/mL. Further, in assay [2], the “SMMC-7721 IC50” value came out at 0.43 µg/mL. Further, the “HT-29 IC50” value in assay [3] came to 0.13 µg/mL. Moreover, in assay [4], the “MDA-MB-231 IC50” value came out at 0.13 µg/mL. The “U87MG IC50” value in assay [5] came to 0.50 µg/mL. In addition, in assay [6], the “H460 IC50” value came to 0.089 µg/mL.
Consider “(E)-N^1-(3-fluoro-4-(6-methoxy-7-(3-(piperidin-1-yl)propoxy)quinoline-4-yloxy)phenyl)-N^4-(2,4-dichlorobenzaldehyde)thiosemicarbazone [Example 41]”, for which the “MKN-45 IC50” value in assay [1] was 0.10 µg/mL. Moreover, in assay [2], the “SMMC-7721 IC50” value stood at 0.66 µg/mL. Also, the “HT-29 IC50” value in assay [3] turned out to be 0.13 µg/mL. Moreover, the “MDA-MB-231 IC50” value in assay [4] worked out at 0.088 µg/mL. Further, in assay [5], the “U87MG IC50” value is 0.54 µg/mL. Also, in assay [6], the “H460 IC50” value amounted to 0.097 µg/mL.
